For experiment [1], the target named is Human DP1 receptor (Homo sapiens (Human), UniProt Q13258). Nature of the experiment: Human DP1 inhibitory activity in DP1-expressing cell (PGD2-induced cAMP). The format is cell-based. On the procedure: Compounds were categorized as AA (cAMP is less than 100 nM) and A (cAMP is more than 100 nM and less than 5000 nM) as shown in Table 99 and 100.
Experiment [2] addresses T1, CRTH2 (Homo sapiens (Human), UniProt Q9Y5Y4). Nature of the experiment: CRTH2 receptor binding inhibitory activity ([3H]-PGD2 displacement, membranes of CRTH2-expressing K562 cell). The note with it: [3H]-PGD2 displacement, membrane of CRTH2-expressing K562 cell, read-out: Ki. An outline of the steps:
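Incubation ran 60 min at room temperature using 20 μg/well membrane from CRTH2-expressing K562 cells in pH 7.4 Tris/HCl (50 mM) with 10 mM MgCl2.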

Experiment [3] concerns the target T1, CRTH2. The experiment is described as follows: CRTH2 inhibitory activity in human eosinophil (PGD2 induced eosinophil shape change). Particulars: human peripheral blood, 40 nM PGD2, forward scatter; read-out: IC50, inhibition of PGD2 induced eosinophil shape change. The format is cell-based. The protocol:
CRTH2 inhibitory activity in human eosinophil was determined as inhibitory activity of PGD2 induced eosinophil shape change.
Human peripheral blood was mixed with compounds of the present invention at 37° C. After 5 min, the blood was treated with 40 nM of PGD2 for 10 min and fixed. The blood was hemolyzed and centrifuged. Blood cells were resuspended in PBS and measured forward scatter (FS) using flow cytometer (FACSAria). Inhibition ratio was defined by comparing FS with and without compound, and IC50 for each compound was calculated from inhibitory curve.

The target of experiment [4] is T1, CRTH2. Nature of the experiment: CRTH2 inhibitory activity in CRTH2-expressing cells (PGD2-induced intracellular calcium increase, K562). The format is cell-based. The note with it: 200 nM PGD2, read-out: IC50, inhibition of intracellular calcium concentration increase induced by PGD2. The protocol: CRTH2 inhibitory activities of compounds were determined as inhibition activity of intra-cellular calcium concentration increase induced by PGD2 in CRTH2-expressing cells.
CRTH2-expressing K562 cells were suspended at concentration of 2×10^6 cells/ml in buffer (10 mM HEPES, pH 7.4, 0.1% Bovine serum albumin). Cells were incubated with […] (4 μM) for 30 min at room temperature. Cells were washed, resuspended and mixed with various concentration of compounds of the present invention. After 2 min, cells were treated with 200 nM of PGD2. Then intracellular calcium concentration was measured using intracellular ion analyzer (FDSS3000). Inhibition ratio was defined by comparing intracellular calcium concentration increase with and without compound, and IC50 for each compound was calculated from inhibitory curve.
A general note: Calcium assays in cells follow changes in intracellular calcium, usually with a dye or a luminescent sensor.

Experiment [5] deals with DP receptor (Homo sapiens (Human), UniProt Q13258). The experiment is described as follows: DP inhibitory activity in human platelets (PGD2-induced cAMP increase in platelet rich plasma, HTRF). The format is cell-based. The note with it: IC50 of PGD2 (300 nM)-induced cAMP increase, read-out: PRP. On the procedure: Thirty milliliter of blood was drown from healthy human into a syringe preloaded with 1/9 volume of 3.8% citrate sodium. The blood was centrifuged with 180 g for 10 min at room temperature and the upper plasma layer was collected as platelet rich plasma (PRP). The PRP was transferred to plate and treated with 3-isobutyl-1-methylxanthin (IBMX; […]) for 5 min. Then the compounds of the present invention were added to the plate and after 10 min, 300 nM of PGD2 was added. The reaction was stopped with 1 mmol/l hydrogenchlolide after 2 min of PGD2 addition, and platelet was lysed by adding 12% Triton X-100. The concentration of cAMP in the supernatant of the platelet lysate was quantified using homogenous time resolved fluorescence (HTRF). Inhibition ratio was defined by cAMP increase with and without compound, and […] for each compound was calculated from inhibitory curve.
On the technique in general: Time-resolved FRET reads energy transfer from a long-lived donor to a nearby acceptor.

The target of experiment [6] is CYP3A4 enzyme expressed in Escherichia coli (Homo sapiens (Human), UniProt P08684). Nature of the experiment: CYP3A4 fluorescent MBI test. The format is in vitro ADME. Particulars: pre-reaction time 0 or 30 minutes, substrate 7-BFC; read-out: CYP3A4 MBI, difference between IC50 values with and without preincubation. The protocol: The CYP3A4 fluorescent MBI test is a test of investigating enhancement of CYP3A4 inhibition of a compound by a metabolism reaction, and the test was performed using, as CYP3A4 enzyme expressed in Escherichia coli and employing, as an index, a reaction in which 7-benzyloxytrifluoromethylcoumarin (7-BFC) is debenzylated by the CYP3A4 enzyme to produce a metabolite, 7-hydroxytrifluoromethylcoumarin (HFC) emitting fluorescent light.
The reaction conditions were as follows: substrate, 5.6 μmol/L 7-BFC; pre-reaction time, 0 or 30 minutes; reaction time, 15 minutes; reaction temperature, 25° C. (room temperature); CYP3A4 content (expressed in Escherichia coli), at pre-reaction […], at reaction […] (at 10-fold dilution); concentration of a compound of the present, 0.625, 1.25, 2.5, 5, 10, 20 μmol/L (six points).
An enzyme in a K-Pi buffer (pH 7.4) and a compound solution of the present invention as a pre-reaction mixture were added to a 96-well plate at the composition of the pre-reaction, a part of it was transferred to another 96-well plate so that it was 1/10 diluted by a substrate in a K-Pi buffer, NADPH as a co-factor was added to initiate a reaction as an index (without preincubation) and, after a predetermined time of a reaction, acetonitrile/0.5 mol/L Tris(trishydroxyaminomethane)=4/1 (V/V) was added to stop the reaction. In addition, NADPH was added to a remaining preincubation solution to initiate a preincubation (with preincubation) and, after a predetermined time of a preincubation, a part was transferred to another plate so that it was 1/10 diluted with a substrate and a K-Pi buffer to initiate a reaction as an index. After a predetermined time of a reaction, acetonitrile/0.5 mol/L Tris(trishydroxyaminomethane)=4/1 (V/V) was added to stop the reaction. For the plate on which each index reaction had been performed, a fluorescent value of 7-HFC which is a metabolite was measured with a fluorescent plate reader. (Ex=420 nm, Em=535 nm).

The mark [7] stands for this setting: category of cAMP IC50, human DP1 receptor expressing Jurkut cell.
[8] abbreviates: CRTH2 receptor binding, categorized AAAA/AAA.
[9] abbreviates: IC50 of PGD2 (60 nM)-induced cAMP increase, human DP1 receptor expressing Jurkut cell.

pIC50, pKi: −log10 of the molar value. Like-named read-outs stand apart in the source and are kept apart here.

Chain of CYP3A4 enzyme expressed in Escherichia coli (P08684 whole entry): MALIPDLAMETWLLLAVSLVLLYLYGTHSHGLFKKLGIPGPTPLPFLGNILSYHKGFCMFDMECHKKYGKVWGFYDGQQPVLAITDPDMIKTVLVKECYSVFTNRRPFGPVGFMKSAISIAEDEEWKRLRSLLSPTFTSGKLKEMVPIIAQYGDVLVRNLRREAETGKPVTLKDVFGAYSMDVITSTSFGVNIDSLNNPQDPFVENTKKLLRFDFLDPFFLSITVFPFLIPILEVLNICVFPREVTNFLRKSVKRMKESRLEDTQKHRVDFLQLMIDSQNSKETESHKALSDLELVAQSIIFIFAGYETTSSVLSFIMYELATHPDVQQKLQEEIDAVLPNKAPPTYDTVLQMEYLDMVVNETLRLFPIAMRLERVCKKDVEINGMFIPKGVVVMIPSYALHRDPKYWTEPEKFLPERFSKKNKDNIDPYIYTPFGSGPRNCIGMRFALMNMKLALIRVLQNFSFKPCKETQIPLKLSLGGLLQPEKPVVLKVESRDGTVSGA
T1 sequence (Q9Y5Y4 whole entry): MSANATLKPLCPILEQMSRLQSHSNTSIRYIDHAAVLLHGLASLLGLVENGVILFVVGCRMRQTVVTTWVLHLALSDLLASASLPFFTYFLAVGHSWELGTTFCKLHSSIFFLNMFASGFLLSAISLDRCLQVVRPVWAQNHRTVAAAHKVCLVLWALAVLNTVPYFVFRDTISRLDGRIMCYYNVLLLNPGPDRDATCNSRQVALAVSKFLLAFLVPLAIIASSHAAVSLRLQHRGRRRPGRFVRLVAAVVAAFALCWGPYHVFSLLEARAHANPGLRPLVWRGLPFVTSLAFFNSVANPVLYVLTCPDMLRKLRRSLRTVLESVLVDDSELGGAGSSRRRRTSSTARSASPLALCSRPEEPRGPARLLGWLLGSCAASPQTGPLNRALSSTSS
Chain of Human DP1 receptor (Q13258 whole entry): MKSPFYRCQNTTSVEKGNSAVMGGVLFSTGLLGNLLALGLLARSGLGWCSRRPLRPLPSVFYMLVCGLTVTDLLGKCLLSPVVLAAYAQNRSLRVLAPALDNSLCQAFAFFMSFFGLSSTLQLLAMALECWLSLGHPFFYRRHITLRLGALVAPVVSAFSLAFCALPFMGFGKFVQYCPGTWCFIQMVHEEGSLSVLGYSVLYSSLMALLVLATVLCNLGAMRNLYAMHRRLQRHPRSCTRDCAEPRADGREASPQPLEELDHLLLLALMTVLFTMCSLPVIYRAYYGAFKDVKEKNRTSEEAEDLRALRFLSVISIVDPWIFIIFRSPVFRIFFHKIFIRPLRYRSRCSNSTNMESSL
Chain of DP receptor (Q13258 whole entry): as above

Regarding `CC(C)Oc1ccc(S(=O)(=O)N2C[C@H](C)[C@@H](n3nc(CC(=O)O)c4ccc(F)cc43)C2)cc1` [Compound I-31], the results for the pIC50 in experiment [1] (setting [7]) and in experiment [3] were greater than 7.00 and 7.89, respectively. For the same molecule, the pKi in experiment [2] (setting [8]) is greater than 7.00.

In the case of `CCOc1ccc(S(=O)(=O)N2C[C@@H](C)[C@@H](n3nc(CC(=O)O)c4ccccc43)C2)cc1` [Compound I-97], the results for the pIC50 in experiment [1] (setting [7]), in experiment [4] and in experiment [3] were greater than 7.00, 7.04 and 7.17, respectively. Further, the figures for the pKi in experiment [2] (setting [8]) and in experiment [2] were greater than 7.00 and 7.89, respectively.

In the case of `CC(C)Oc1ccc(S(=O)(=O)N2C[C@@H](C)[C@@H](n3nc(CC(=O)O)c4ccc(F)cc43)C2)cn1` [Compound I-123], the pIC50 in experiment [5] is 6.92; in experiment [1] (setting [9]), 7.51; in experiment [1] (setting [7]), greater than 7.00; in experiment [4], 7.04; in experiment [3], 7.22. Besides, the results for the pKi in experiment [2] (setting [8]) and in experiment [2] were greater than 7.00 and 8.37, respectively.

In the case of `CC(C)Oc1ccc(S(=O)(=O)N2C[C@@H](C)[C@@H](n3nc(CC(=O)O)c4ccc(C(F)(F)F)cc43)C2)cc1` [Compound I-130], the pIC50 in experiment [5] was 6.62; in experiment [1] (setting [9]) it was 8.00; in experiment [1] (setting [7]), greater than 7.00; in experiment [4] it was 7.14; in experiment [3], 7.34. Also, the pKi in experiment [2] (setting [8]) was greater than 7.00; in experiment [2], 8.33.

In the case of `CC(C)Oc1ccc(S(=O)(=O)N2C[C@@H](C)[C@@H](n3nc(CC(=O)O)c4ccc(C(F)(F)F)cc43)C2)cn1` [Compound I-131], the pIC50 is 6.72 in experiment [5], 7.51 in experiment [1] (setting [9]), greater than 7.00 in experiment [1] (setting [7]) and 6.68 in experiment [4]. The pKi was greater than 7.00 in experiment [2] (setting [8]) and 8.13 in experiment [2].

On to `CCOc1ccc(S(=O)(=O)N2C[C@@H](C)[C@@H](n3nc(CC(=O)O)c4ccccc43)C2)s1` [Compound I-177], for which the pIC50 is 7.36 in experiment [5], 7.24 in experiment [1] (setting [9]) and greater than 7.00 in experiment [1] (setting [7]). Further, the pKi in experiment [2] (setting [8]) is greater than 7.00; in experiment [2], 7.82.

With `CCOc1ccc(S(=O)(=O)N2C[C@@H](C)[C@@H](n3nc(CC(=O)O)c4c(C)cccc43)C2)cc1` [Compound I-205], the pIC50 in experiment [5] was 7.15; in experiment [1] (setting [9]) it was 7.89; in experiment [1] (setting [7]), greater than 7.00. For the same molecule, the pKi in experiment [2] (setting [8]) is 5.30 to 7.00.

`CCOc1ccc(S(=O)(=O)N2C[C@@H](C)[C@@H](n3nc(CC(=O)O)c4ccc(N5CCCC5)cc43)C2)cn1` [Compound I-222]: the pIC50 was 6.85 in experiment [5], 7.02 in experiment [1] (setting [9]) and greater than 7.00 in experiment [1] (setting [7]). Moreover, the figures for the pKi in experiment [2] (setting [8]) and in experiment [2] were 5.30 to 7.00 and 7.00, respectively.

Consider `CCOc1ccc(S(=O)(=O)N2C[C@@H](C)[C@@H](n3nc(CC(=O)O)c4ccccc43)C2)c(F)c1` [Compound I-245], for which the results for the pIC50 in experiment [5], in experiment [1] (setting [9]) and in experiment [1] (setting [7]) were 7.17, 7.57 and greater than 7.00, respectively. For the same molecule, the pKi in experiment [2] (setting [8]) is greater than 7.00.

`CCOc1ccc(S(=O)(=O)N2C[C@@H](C)[C@@H](n3cc(CC(=O)O)c4ccc(C#N)cc43)C2)cc1` [Compound I-256]: the pIC50 in experiment [1] (setting [7]) is greater than 7.00. Further, the pKi in experiment [2] (setting [8]) is greater than 7.00. Further, in experiment [6], the difference in IC50 with vs without preincubation is no more than 3000 nM.

For `CCOc1ccc(S(=O)(=O)N2C[C@@H](C)[C@@H](n3nc(C(C)C(=O)O)c4ccccc43)C2)cc1` (some centres unmarked) [Compound I-284], the pIC50 in experiment [5] was 6.89; in experiment [1] (setting [9]) it was 7.30; in experiment [1] (setting [7]), greater than 7.00. Further, the pKi was greater than 7.00 in experiment [2] (setting [8]) and 7.26 in experiment [2].

Turning to `Cc1c(CC(=O)O)c2ccccc2n1[C@H]1CN(S(=O)(=O)c2ccc(F)cc2)C[C@H]1C` [Compound I-287], the pIC50 in experiment [1] (setting [7]) was 5.30 to 7.00. Besides, the pKi in experiment [2] (setting [8]) is greater than 7.00. In experiment [6], the difference in IC50 with vs without preincubation was no more than 3000 nM.

On to `CCOc1ccc(S(=O)(=O)N2C[C@H](n3nc(CC(=O)O)c4ccccc43)C[C@@H]2C#N)cc1` [Compound I-322], for which the figures for the pIC50 in experiment [5], in experiment [1] (setting [9]) and in experiment [1] (setting [7]) were 7.92, 7.54 and greater than 7.00, respectively. The pKi is 5.30 to 7.00 in experiment [2] (setting [8]) and 6.57 in experiment [2].

As for `CCOc1ccc(S(=O)(=O)N2C[C@@H](C)[C@@H](n3nc(CC(=O)O)c4ccccc43)C2)c(N)c1` [Compound I-325], the pIC50 was 6.68 in experiment [5], 7.62 in experiment [1] (setting [9]) and greater than 7.00 in experiment [1] (setting [7]). The results for the pKi in experiment [2] (setting [8]) and in experiment [2] were greater than 7.00 and 7.55, respectively.

For the molecule `CCOc1ccc(S(=O)(=O)N2C[C@@H](C)[C@@H](n3c(C)c(CC(=O)O)c4ccccc43)C2)cc1` [Compound I-329], the pIC50 in experiment [1] (setting [7]) was greater than 7.00. Besides, the negative-log Ki (pKi) in experiment [2] (setting [8]) is greater than 7.00. Besides, the difference in IC50 with vs without preincubation in experiment [6] is no more than 3000 nM.

Regarding `CCOc1ccc(S(=O)(=O)N2C[C@@H](C)[C@@H](n3nc(C4(C(=O)O)CC4)c4ccccc43)C2)cc1` [Compound I-336], the pIC50 in experiment [5] is 6.74; in experiment [1] (setting [9]) it was 7.46; in experiment [1] (setting [7]), greater than 7.00. Also, the results for the pKi in experiment [2] (setting [8]) and in experiment [2] were 5.30 to 7.00 and 6.36, respectively.

Consider `CCOc1ccc(S(=O)(=O)N2C[C@H](n3nc(CC(=O)O)c4ccccc43)CC23COC3)cc1` [Compound I-353], for which the pIC50 in experiment [5] was 7.43; in experiment [1] (setting [9]), 6.92; in experiment [1] (setting [7]) it was 5.30 to 7.00. Also, the pKi in experiment [2] (setting [8]) was 5.30 to 7.00; in experiment [2], 6.40.

Usually pKi stands for the negative decadic logarithm of the Ki, by convention in mol/L.

Source of the values: patent publication US9725442B2, “Heterocyclic derivative having PGD2 receptor antagonist activity” (Shionogi & Co., Ltd., priority 2011, dated 2017).
